Assay results as given in ChEMBL document CHEMBL3991601, “The target landscape of clinical kinase drugs” (Science, 2017).
The source made the active and inactive calls.

Columns and labels:
[1] = target: Mitogen-activated protein kinase 14 (Homo sapiens, UniProt Q16539)
[2] = target: Uncharacterized aarF domain-containing protein kinase 5 (Homo sapiens, UniProt Q3MIX3)
[3] = target: T1, Isoleucine--tRNA ligase, mitochondrial (Homo sapiens, UniProt Q9NSE4)
T1 sequence (Q9NSE4 whole entry): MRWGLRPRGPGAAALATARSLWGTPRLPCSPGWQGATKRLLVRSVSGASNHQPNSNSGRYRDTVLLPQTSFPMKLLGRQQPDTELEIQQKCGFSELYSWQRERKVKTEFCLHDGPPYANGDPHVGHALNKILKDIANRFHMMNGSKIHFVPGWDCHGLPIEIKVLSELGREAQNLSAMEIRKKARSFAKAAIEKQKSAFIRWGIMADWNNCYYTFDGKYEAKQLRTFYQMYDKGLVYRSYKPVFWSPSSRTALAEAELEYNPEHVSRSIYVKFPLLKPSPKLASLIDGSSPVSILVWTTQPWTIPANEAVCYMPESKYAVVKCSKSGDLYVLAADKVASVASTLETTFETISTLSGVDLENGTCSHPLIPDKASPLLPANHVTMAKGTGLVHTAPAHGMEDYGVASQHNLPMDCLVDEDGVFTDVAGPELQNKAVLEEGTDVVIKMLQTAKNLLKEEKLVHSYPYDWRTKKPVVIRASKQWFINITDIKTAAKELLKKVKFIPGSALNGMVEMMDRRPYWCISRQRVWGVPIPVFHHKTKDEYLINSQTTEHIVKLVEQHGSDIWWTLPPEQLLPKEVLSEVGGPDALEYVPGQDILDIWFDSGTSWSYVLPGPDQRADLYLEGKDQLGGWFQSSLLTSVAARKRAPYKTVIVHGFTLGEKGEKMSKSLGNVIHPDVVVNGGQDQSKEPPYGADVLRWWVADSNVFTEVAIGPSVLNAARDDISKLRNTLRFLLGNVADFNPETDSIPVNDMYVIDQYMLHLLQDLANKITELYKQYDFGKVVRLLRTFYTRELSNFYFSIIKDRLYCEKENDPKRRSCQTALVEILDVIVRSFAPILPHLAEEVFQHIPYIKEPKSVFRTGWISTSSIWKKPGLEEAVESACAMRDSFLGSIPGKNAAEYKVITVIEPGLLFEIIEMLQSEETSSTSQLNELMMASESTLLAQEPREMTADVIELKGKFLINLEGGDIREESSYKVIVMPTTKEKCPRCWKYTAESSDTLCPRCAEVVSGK

[4] = target: Ephrin type-A receptor 7 (Homo sapiens, UniProt Q15375)
Chain of Ephrin type-A receptor 7 (Q15375 whole entry): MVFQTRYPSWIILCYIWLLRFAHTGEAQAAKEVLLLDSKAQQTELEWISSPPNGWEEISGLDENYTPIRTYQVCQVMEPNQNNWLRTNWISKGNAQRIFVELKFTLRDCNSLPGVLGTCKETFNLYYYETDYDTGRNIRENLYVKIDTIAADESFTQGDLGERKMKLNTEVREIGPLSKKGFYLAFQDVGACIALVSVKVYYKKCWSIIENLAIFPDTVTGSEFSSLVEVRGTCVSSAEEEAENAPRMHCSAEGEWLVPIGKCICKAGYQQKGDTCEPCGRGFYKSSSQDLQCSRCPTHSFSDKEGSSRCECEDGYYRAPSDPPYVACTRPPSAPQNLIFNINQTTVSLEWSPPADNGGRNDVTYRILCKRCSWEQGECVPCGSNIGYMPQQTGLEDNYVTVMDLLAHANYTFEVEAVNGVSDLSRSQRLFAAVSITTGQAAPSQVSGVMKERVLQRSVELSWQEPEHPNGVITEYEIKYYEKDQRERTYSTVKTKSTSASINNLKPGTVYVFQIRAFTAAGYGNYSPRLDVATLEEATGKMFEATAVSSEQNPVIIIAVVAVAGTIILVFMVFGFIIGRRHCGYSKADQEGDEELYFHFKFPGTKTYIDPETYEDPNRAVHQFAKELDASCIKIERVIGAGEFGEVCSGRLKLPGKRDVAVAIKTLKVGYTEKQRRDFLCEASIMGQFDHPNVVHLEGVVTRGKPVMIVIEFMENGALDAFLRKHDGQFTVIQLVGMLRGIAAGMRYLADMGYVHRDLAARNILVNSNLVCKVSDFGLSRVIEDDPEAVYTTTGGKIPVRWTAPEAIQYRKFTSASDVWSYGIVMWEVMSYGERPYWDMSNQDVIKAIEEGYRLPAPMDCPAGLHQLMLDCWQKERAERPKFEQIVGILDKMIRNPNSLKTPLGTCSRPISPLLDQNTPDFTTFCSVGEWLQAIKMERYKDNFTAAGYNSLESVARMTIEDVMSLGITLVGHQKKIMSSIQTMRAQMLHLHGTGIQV

[5] = target: T2, Long-chain-fatty-acid--CoA ligase 5 (Homo sapiens, UniProt Q9ULC5)
T2 sequence (Q9ULC5 whole entry): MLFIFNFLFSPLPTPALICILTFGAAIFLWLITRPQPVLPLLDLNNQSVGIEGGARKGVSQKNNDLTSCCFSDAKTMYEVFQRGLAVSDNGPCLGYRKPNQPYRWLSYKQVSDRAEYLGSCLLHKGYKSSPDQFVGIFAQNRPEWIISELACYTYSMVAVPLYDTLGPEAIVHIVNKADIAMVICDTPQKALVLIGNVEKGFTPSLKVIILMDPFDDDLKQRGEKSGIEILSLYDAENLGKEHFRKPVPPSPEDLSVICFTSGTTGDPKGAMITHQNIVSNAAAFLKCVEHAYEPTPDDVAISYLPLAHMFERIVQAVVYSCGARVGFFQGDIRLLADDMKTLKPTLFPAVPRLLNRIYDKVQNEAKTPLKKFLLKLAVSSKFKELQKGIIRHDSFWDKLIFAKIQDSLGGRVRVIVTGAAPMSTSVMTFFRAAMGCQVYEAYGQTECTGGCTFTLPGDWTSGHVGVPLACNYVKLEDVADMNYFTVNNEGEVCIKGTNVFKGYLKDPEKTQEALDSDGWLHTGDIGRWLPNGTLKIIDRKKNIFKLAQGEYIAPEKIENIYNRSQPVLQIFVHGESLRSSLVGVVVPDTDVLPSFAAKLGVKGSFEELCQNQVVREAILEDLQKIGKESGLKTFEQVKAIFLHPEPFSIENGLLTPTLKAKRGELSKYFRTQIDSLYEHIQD

[6] = target: Serine/threonine-protein kinase 38-like (Homo sapiens, UniProt Q9Y2H1)
Chain of Serine/threonine-protein kinase 38-like (Q9Y2H1 whole entry): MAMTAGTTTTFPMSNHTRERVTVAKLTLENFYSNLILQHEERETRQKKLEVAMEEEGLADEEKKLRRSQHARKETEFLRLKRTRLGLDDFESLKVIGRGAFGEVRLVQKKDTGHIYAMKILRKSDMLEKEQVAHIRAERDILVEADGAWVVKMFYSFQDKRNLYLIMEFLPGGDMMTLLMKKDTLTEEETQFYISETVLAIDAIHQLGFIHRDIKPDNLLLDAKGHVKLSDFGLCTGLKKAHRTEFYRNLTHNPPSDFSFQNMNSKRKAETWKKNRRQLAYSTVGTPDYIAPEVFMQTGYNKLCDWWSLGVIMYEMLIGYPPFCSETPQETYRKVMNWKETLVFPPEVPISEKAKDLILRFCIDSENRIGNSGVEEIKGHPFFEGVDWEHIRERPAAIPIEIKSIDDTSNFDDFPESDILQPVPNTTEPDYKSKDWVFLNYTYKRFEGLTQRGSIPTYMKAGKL
Also: in the data inactive means no Kd found up to 30 µM.

Chain of Mitogen-activated protein kinase 14 (Q16539 whole entry, the tested form may be a part): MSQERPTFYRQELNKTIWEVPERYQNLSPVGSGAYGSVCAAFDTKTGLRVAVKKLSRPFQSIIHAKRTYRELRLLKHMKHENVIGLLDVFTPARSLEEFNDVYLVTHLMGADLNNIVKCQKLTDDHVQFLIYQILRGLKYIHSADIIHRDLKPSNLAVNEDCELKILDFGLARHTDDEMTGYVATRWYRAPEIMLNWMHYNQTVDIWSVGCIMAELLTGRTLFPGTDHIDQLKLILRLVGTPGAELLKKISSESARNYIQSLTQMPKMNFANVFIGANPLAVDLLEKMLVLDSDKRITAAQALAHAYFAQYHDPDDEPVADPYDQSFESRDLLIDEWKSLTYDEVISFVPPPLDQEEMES
Chain of Uncharacterized aarF domain-containing protein kinase 5 (Q3MIX3 whole entry, the tested form may be a part): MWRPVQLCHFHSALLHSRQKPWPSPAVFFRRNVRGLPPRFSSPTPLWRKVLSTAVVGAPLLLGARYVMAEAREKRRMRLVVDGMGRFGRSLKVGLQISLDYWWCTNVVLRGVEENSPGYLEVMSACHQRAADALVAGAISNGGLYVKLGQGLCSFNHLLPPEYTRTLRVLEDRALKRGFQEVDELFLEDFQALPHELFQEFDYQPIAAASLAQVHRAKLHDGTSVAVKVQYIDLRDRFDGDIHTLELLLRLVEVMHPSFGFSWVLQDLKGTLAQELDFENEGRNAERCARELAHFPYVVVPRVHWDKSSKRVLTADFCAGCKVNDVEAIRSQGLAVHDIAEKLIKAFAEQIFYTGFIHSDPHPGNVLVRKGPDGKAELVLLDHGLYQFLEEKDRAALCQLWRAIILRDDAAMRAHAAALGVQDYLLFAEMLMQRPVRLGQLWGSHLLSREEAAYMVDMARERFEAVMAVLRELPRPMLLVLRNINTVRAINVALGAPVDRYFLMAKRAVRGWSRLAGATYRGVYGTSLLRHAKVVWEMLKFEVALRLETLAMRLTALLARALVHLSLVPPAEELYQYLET

SMILES	Kd [1]	Kd [2]	Kd [3]	Kd [4]	Kd [5]	Kd [6]
N[C@@H]1CCCN(c2c(/C=C3\SC(=O)NC3=O)cccc2-c2ccccc2)C1	> 30 µM (inactive)	> 30 µM (inactive)	> 30 µM (inactive)	> 30 µM (inactive)	–	–
CN1CC[C@@H](c2c(O)cc(O)c3c(=O)cc(-c4ccccc4Cl)oc23)[C@@H]1CO	> 30 µM (inactive)	–	> 30 µM (inactive)	> 30 µM (inactive)	> 30 µM (inactive)	> 30 µM (inactive)
Cn1ncc(Cl)c1-c1cc(C(=O)N[C@H](CN)Cc2cccc(F)c2)sc1Cl [AFURESERTIB]	> 30 µM (inactive)	–	–	> 30 µM (inactive)	–	–
CCS(=O)(=O)N1CC(CC#N)(n2cc(-c3ncnc4[nH]ccc34)cn2)C1 [BARICITINIB]	> 30 µM (inactive)	> 30 µM (inactive)	> 30 µM (inactive)	> 30 µM (inactive)	> 30 µM (inactive)	> 30 µM (inactive)
CNC(=O)c1ccc(-c2cnc3ncc(Cc4ccc5ncccc5c4)n3n2)cc1F [CAPMATINIB]	> 30 µM (inactive)	> 30 µM (inactive)	> 30 µM (inactive)	> 30 µM (inactive)	–	–
O=C(c1ccc(F)c(F)c1Nc1ccc(I)cc1F)N1CC(O)([C@@H]2CCCCN2)C1 [COBIMETINIB]	> 30 µM (inactive)	–	–	> 30 µM (inactive)	> 30 µM (inactive)	> 30 µM (inactive)
CCc1cnn2c(NCc3ccc[n+]([O-])c3)cc(N3CCCC[C@H]3CCO)nc12 [DINACICLIB]	–	> 30 µM (inactive)	> 30 µM (inactive)	> 30 µM (inactive)	> 30 µM (inactive)	> 30 µM (inactive)
CN1CCN(c2ccc3nc(-c4c(N)c5c(F)cccc5[nH]c4=O)[nH]c3c2)CC1 [DOVITINIB]	–	> 30 µM (inactive)	–	–	–	–
COCCNCc1ccc(-c2cc3nccc(Oc4ccc(NC(=S)NC(=O)Cc5ccc(F)cc5)cc4F)c3s2)nc1 [GLESATINIB]	> 30 µM (inactive)	> 30 µM (inactive)	> 30 µM (inactive)	–	> 30 µM (inactive)	–
CC[C@H](Nc1ncnc2[nH]cnc12)c1nc2cccc(F)c2c(=O)n1-c1ccccc1 [IDELALISIB]	> 30 µM (inactive)	> 30 µM (inactive)	–	> 30 µM (inactive)	> 30 µM (inactive)	> 30 µM (inactive)
COc1cc2nccc(Oc3ccc(NC(=O)NC4CC4)c(Cl)c3)c2cc1C(N)=O [LENVATINIB]	0.217 µM (active)	> 30 µM (inactive)	> 30 µM (inactive)	–	> 30 µM (inactive)	> 30 µM (inactive)
Cc1cn(-c2cc(NC(=O)c3ccc(C)c(Nc4nccc(-c5cccnc5)n4)c3)cc(C(F)(F)F)c2)cn1 [NILOTINIB]	–	–	> 30 µM (inactive)	–	–	–
C1=C/COCc2cc(ccc2OCCN2CCCC2)Nc2nccc(n2)-c2cccc(c2)COC/1 [PACRITINIB]	> 30 µM (inactive)	–	> 30 µM (inactive)	> 30 µM (inactive)	–	–
C=CC(=O)N1CCC(Oc2cc3c(Nc4ccc(Cl)c(Cl)c4F)ncnc3cc2OC)CC1 [POZIOTINIB]	> 30 µM (inactive)	–	–	> 30 µM (inactive)	–	> 30 µM (inactive)
COc1cc(OC)c(/C=C/S(=O)(=O)Cc2ccc(OC)c(NCC(=O)O)c2)c(OC)c1 [RIGOSERTIB]	> 30 µM (inactive)	> 30 µM (inactive)	–	> 30 µM (inactive)	–	–
C[C@@H](c1ccc2nccn2c1)n1nnc2ncc(-c3cnn(C)c3)nc21 [SAVOLITINIB]	> 30 µM (inactive)	–	> 30 µM (inactive)	–	> 30 µM (inactive)	> 30 µM (inactive)
O=C(Nc1cccc(Cl)c1)Nc1ncc(CCNc2ncnc3ccsc23)s1 [SNS-314]	–	> 30 µM (inactive)	> 30 µM (inactive)	> 30 µM (inactive)	> 30 µM (inactive)	–
Nc1nc(N)c2nc(-c3cccc(O)c3)c(-c3cccc(O)c3)nc2n1 [TG100-115]	–	–	> 30 µM (inactive)	–	> 30 µM (inactive)	–
COc1cc2nccc(Oc3ccc(NC(=O)Nc4cc(C)on4)c(Cl)c3)c2cc1OC [TIVOZANIB]	> 30 µM (inactive)	> 30 µM (inactive)	> 30 µM (inactive)	–	> 30 µM (inactive)	> 30 µM (inactive)
CN1N=C(N)c2cn([C@@H]3O[C@H](COP(=O)(O)O)[C@@H](O)[C@H]3O)c3ncnc1c23 [TRICIRIBINE PHOSPHATE]	> 30 µM (inactive)	–	> 30 µM (inactive)	–	–	–
CC(C)Nc1cc(-c2c[nH]c(C(=O)N[C@H](CO)c3cccc(Cl)c3)c2)c(Cl)cn1 [ULIXERTINIB]	> 30 µM (inactive)	> 30 µM (inactive)	> 30 µM (inactive)	–	> 30 µM (inactive)	–
CCCS(=O)(=O)Nc1ccc(F)c(C(=O)c2c[nH]c3ncc(-c4ccc(Cl)cc4)cc23)c1F [VEMURAFENIB]	> 30 µM (inactive)	> 30 µM (inactive)	–	–	> 30 µM (inactive)	> 30 µM (inactive)
CC[C@@H]1C(=O)N(C)c2cnc(Nc3ccc(C(=O)N[C@H]4CC[C@H](N5CCN(CC6CC6)CC5)CC4)cc3OC)nc2N1C(C)C [VOLASERTIB]	> 30 µM (inactive)	> 30 µM (inactive)	> 30 µM (inactive)	> 30 µM (inactive)	> 30 µM (inactive)	> 30 µM (inactive)
CCn1c(=O)c(-c2cc[nH]n2)cc2c(C)nc(N)nc21 [VOXTALISIB]	–	–	> 30 µM (inactive)	–	–	–

Next, values leading:

Kd [1]	Kd [2]	Kd [3]	Kd [4]	Kd [5]	Kd [6]	SMILES
> 30 µM (inactive)	> 30 µM (inactive)	–	> 30 µM (inactive)	> 30 µM (inactive)	–	COc1cc(CCc2cc(NC(=O)c3ccc(N4C[C@@H](C)N[C@@H](C)C4)cc3)n[nH]2)cc(OC)c1 [AZD-4547]
> 30 µM (inactive)	–	–	> 30 µM (inactive)	> 30 µM (inactive)	–	C[C@@H](Nc1cc(F)cc(F)c1)c1cc(C(=O)N(C)C)cc2c(=O)cc(N3CCOCC3)oc12 [AZD-8186]
–	–	> 30 µM (inactive)	–	> 30 µM (inactive)	–	CCn1c(-c2nonc2N)nc2c(C#CC(C)(C)O)ncc(OC[C@H]3CCCNC3)c21 [GSK-690693]
> 30 µM (inactive)	> 30 µM (inactive)	–	> 30 µM (inactive)	> 30 µM (inactive)	–	Cn1cc(-c2ccc3nnc(C(F)(F)c4ccc5ncccc5c4)n3n2)cn1 [JNJ-38877605]
> 30 µM (inactive)	–	–	> 30 µM (inactive)	> 30 µM (inactive)	–	Cn1cc(-c2ccc(F)c(C(F)(F)F)c2)nc1C1CCN(c2ncnc3[nH]ncc23)CC1 [LY-2584702]
> 30 µM (inactive)	> 30 µM (inactive)	> 30 µM (inactive)	> 30 µM (inactive)	–	–	O=C(O)[C@]1(Cc2cccc(Nc3nccs3)n2)CC[C@@H](Oc2cccc(Cl)c2F)CC1 [MK-5108]
–	> 30 µM (inactive)	–	–	> 30 µM (inactive)	–	CNC(=O)c1ccc(C)c(-n2c(C)cc(OCc3ccc(F)cc3F)c(Br)c2=O)c1 [PH-797804]
> 30 µM (inactive)	–	–	> 30 µM (inactive)	> 30 µM (inactive)	–	O=C(Nc1ccc(-c2ccnc(Nc3ccc(N4CCOCC4)cc3)n2)cc1)C1CCCN1 (configuration not stated) [XL-019]
